US12162879B2, “Pyridopyrimidine derivative, preparation method therefor and medical use thereof” (Jiangsu Hengrui Medicine Co., Ltd., priority 2018, dated 2024)

Experiments:
Assay type in all cases: cell-based
human TLR8 = human TLR8 (Homo sapiens (Human), UniProt Q9NR97); assay: Agonist activity on human TLR8 in HEK-Blue hTLR8 stably transfected cells; details: 16 hours, OD 620 nm
Method: The agonist effect of the compounds of the present invention on hTLR8 expressed by the HEK-Blue™ hTLR8 stably transfected cells was determined by the following experimental method.
(§1) • 1. DMEM(Gibco, 10564-029); • 2. Fetal bovine serum (GIBCO, 10099); • 3. Trypan blue solution (Sigma, T8154-100 ML); • 4. Flexstation 3 multi-function microplate reader (Molecular Devices); • 5. HEK-Blue™ hTLR8 cell line (InvivoGen, hkb-hTLR8), or HEK-Blue™ hTLR7 cell line (InvivoGen, hkb-hTLR7); • 6. HEK-Blue detection reagent (InvivoGen, hb-det3); and • 7. Phosphate buffer solution (PBS) pH 7.4 (Shanghai Basalmedia Technologies Co., Ltd., B320). II. Experimental Procedures a. Determination of Agonist Activity on Human TLR8
(§2) A bag of HEK-Blue detection dry powder was dissolved in 50 ml of water free of endotoxin, and the solution was then placed in an incubator at 37° C. for 10 minutes followed by sterile filtration to prepare a HEK-Blue detection medium. The compound was firstly formulated into a 20 mM stock solution, then diluted with pure DMSO to a maximum concentration of 6×10^6 nM, and a total of 10 points were obtained by a 3-fold gradient dilution. The above formulated compound was firstly diluted 20-fold with the medium, then 20 μl of the diluted compound was added to each well.
(§3) The supernate was removed from the HEK-Blue™ hTLR8 cells, to which 2-5 ml of pre-warmed PBS was then added. The cells were placed in an incubator for 1-2 minutes, gently pipetted, and counted by trypan blue staining. The cells were re-suspended in the HEK-Blue detection medium to adjust the concentration to 2.2×10^5 cells/ml. 180 μl of cells was added to the above 96-well plate comprising 20 μl of the compound, and incubated at 37° C. for 16 hours.
(§4) The corresponding OD values were obtained by a microplate reader at a wavelength of 620 nm, and the EC50 values of the compounds were calculated by Graphpad Prism.

[1] = test system: peripheral blood mononuclear cells (PBMC); assay: Stimulation of IL12 secretion from PBMC (ELISA); details: minimum effective concentration, human PBMC, 24 hours
Method: The stimulating effect of the compounds of the present invention on the ability of secretion of IL12 and IFN γ from PBMC was determined by the following experimental method.
• 1. RMPI 1640 (Invitrogen, 11875); • 2. FBS (Gibco, 10099-141); • 3. Ficoll-Paque PREMIUM (GE, 17-5442-02); • 4. Trypan blue solution (Sigma, T8154-100 ML); • 5. SepMate™-50 (Stemcell, 15460); • 6. Bright-LineIM blood cell counter (Sigma, Z359629-1EA); • 7. 96-well cell culture plate (Corning, 3599); • 8. 96-well v-bottom plate (Corning, 3894); • 9. Human IL-12 ELISA kit (Neobioscience Technology Co., EHC152.96); • 10. Human IFN γ kit (cisbio, 62HIFNGPEG); and • 11. PHERAStar multi-function microplate reader (BMG, PHERAStar). II. Experimental Procedures
The compound was diluted with pure DMSO to a maximum concentration of 5 mM, and a total of 9 points were obtained by a 4-fold gradient dilution. 4 μl of the compound solution was then added to 196 μl of RMPI 1640 medium containing 10% FBS and mixed well. 50 μl of the mixture was taken and added to a 96-well cell culture plate.
All reagents were equilibrated to room temperature. 60 ml of blood from a healthy human and the same volume of PBS (containing 2% FBS) were added to a 250 ml culture flask, gently pipetted, mixed well and diluted. 15 ml of lymphocyte separation solution Ficoll-Paque PREMIUM was added to a 50 ml PBMC centrifuge tube SepMate™-50, followed by the addition of 30 ml of the above diluted blood. The mixture was centrifuged at 1200 g for 10 minutes at room temperature. The supernatant was taken and then centrifuged at 300 g for 8 minutes. The cells were re-suspended in the RMPI 1640 medium containing 10% FBS and counted, and the number of PBMCs was adjusted to 3.33×10^6 cells/ml. 150 μl of the cell solution was added to the plate containing the compounds, and incubated in an incubator at 37° C., 5.0% CO2 for 24 hours. The cell culture plate was placed in a centrifuge, and centrifuged at 1200 rpm for 10 minutes at room temperature. 150 μl of the supernatant was taken from each well.
The reagents in the Human IL-12 ELISA kit were equilibrated to room temperature. According to the kit's instruction, the highest concentration of the standard is 2000 pg/ml, and a total of 8 points were obtained by a 2-fold gradient dilution. The sample to be tested was diluted 20 folds. The solution was then added to a pre-coated plate at 100 μl/well. The plate was incubated at 37° C. for 90 minutes and rinsed. The […] was added at 100 μl/well, and the plate was incubated at 37° C. for 60 minutes and rinsed. HRP binding enzyme was added at 100 μl/well, and the plate was incubated at 37° C. for 30 minutes and rinsed. TMB was added, and the plate was incubated at room temperature for 5 minutes. Finally, the stop solution was added to stop the reaction, and the absorbance at 450 nm was read by the microplate reader.
The concentration of the compound that can stimulate PBMC to produce […] that is 3 times higher than the average value of the group without the compound (SD of the group without the compound) was defined as the minimum effective concentration (MEC) value of the compound.

human TLR7 = human TLR7 (Homo sapiens (Human), UniProt Q9NYK1); assay: Agonist activity on human TLR7 in HEK-Blue hTLR7 cells; details: 16 hours, OD 620 nm
Method: as §1, §2
as §3, with “hTLR7” for “hTLR8”
as §4

Chain of human TLR8 (Q9NR97 27-1041): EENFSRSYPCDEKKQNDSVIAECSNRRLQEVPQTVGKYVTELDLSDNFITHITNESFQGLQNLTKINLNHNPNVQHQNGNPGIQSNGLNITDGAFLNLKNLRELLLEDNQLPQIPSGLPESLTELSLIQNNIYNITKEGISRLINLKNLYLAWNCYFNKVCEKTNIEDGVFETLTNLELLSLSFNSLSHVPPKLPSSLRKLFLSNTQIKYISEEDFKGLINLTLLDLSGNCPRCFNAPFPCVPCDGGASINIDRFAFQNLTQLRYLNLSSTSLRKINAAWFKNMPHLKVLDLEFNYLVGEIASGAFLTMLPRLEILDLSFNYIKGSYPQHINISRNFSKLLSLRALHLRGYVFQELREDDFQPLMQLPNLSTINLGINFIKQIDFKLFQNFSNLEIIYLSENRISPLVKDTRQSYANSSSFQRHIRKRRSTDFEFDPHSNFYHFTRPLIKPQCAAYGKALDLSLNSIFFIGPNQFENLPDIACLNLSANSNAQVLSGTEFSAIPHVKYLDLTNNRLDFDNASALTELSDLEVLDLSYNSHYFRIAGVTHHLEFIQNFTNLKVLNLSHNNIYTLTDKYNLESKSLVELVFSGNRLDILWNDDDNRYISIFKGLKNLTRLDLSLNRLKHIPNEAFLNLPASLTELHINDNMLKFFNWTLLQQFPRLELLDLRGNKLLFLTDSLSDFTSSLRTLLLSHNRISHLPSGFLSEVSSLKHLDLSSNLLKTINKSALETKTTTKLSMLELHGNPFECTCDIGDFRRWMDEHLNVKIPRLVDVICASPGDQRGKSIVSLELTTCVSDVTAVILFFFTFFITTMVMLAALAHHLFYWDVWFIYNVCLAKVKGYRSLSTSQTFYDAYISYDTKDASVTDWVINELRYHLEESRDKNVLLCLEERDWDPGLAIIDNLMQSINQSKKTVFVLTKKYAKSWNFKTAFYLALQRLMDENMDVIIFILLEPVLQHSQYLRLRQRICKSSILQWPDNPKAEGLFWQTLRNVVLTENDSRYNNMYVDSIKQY
Chain of human TLR7 (Q9NYK1 27-1049): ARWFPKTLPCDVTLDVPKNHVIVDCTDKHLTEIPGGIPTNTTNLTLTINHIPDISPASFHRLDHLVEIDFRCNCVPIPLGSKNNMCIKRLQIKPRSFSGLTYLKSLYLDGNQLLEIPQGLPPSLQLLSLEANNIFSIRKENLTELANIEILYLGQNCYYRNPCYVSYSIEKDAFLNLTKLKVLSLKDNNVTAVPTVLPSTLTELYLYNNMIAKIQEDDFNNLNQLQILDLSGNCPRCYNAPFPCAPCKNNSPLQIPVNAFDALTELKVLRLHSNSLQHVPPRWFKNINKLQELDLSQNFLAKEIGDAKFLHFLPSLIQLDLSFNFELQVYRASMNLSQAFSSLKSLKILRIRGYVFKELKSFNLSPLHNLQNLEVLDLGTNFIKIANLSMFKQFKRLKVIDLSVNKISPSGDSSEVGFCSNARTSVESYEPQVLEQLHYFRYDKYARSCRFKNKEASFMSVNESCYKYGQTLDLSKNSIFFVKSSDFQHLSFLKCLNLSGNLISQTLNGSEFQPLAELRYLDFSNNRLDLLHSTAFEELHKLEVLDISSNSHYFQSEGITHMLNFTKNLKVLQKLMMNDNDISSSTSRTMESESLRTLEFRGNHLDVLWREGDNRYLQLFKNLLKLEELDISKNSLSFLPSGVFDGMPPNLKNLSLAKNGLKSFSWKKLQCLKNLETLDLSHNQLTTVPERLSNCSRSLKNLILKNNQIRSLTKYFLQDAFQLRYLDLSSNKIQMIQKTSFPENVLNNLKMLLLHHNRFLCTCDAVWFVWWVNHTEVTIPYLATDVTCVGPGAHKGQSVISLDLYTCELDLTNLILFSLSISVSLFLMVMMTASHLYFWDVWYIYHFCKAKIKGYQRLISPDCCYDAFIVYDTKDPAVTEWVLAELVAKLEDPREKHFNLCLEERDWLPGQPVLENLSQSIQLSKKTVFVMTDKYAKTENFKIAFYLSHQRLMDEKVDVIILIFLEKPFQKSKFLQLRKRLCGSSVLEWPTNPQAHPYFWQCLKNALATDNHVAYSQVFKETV

Row | EC50 (human TLR8) [nM] | Emax (human TLR8) [%] | EC50 (human TLR7) [nM] | Emax (human TLR7) [%] | Compound | IL12 MEC [1] [nM]
1 | 80 | 106 |  |  | CCCC[C@](C)(CO)Nc1nc(N)nc2cc(-c3ccc(CN4CCCC4)nc3)cnc12 [Example 2, (R)-2-((2-Amino-7-(6-(pyrrolidin-1-ylmethyl)pyridin-3-yl)pyrido[3,2-d]pyrimidin-4-yl)amino)-2-methylhexan-1-ol] | 23
2 | 100 | 97 | > 30000 | 12 | CCCC[C@](C)(CO)Nc1nc(N)nc2cc(-c3ccc(C4CCN(C)CC4)nc3)cnc12 [Example 4, (R)-2-((2-Amino-7-(6-(1-methylpiperidin-4-yl)pyridin-3-yl)pyrido[3,2-d]pyrimidin-4-yl)amino)-2-methylhexan-1-ol] | 31
3 | 270 | 110 | > 30000 | 14 | CCCCC(C)(CO)Nc1nc(N)nc2cc(-c3ccc(CN4CCN(C)CC4)nc3)cnc12 (stereo not shown) [Example 5, 2-((2-Amino-7-(6-((4-methylpiperazin-1-yl)methyl)pyridin-3-yl)pyrido[3,2-d]pyrimidin-4-yl)amino)-2-methylhexan-1-ol] | 
4 | 100 | 107 | > 30000 | 14 | CCCC[C@](C)(CO)Nc1nc(N)nc2cc(-c3ccc(CN4CCN(C)CC4)nc3)cnc12 [Example 6, (R)-2-((2-Amino-7-(6-((4-methylpiperazin-1-yl)methyl)pyridin-3-yl)pyrido[3,2-d]pyrimidin-4-yl)amino)-2-methylhexan-1-ol] | 41
5 | 40 | 114 | > 19000 | 73 | CCCC[C@](C)(CO)Nc1nc(N)nc2cc(-c3cnc(C4CCN(C)CC4)nc3)cnc12 [Example 8, (R)-2-((2-Amino-7-(2-(1-methylpiperidin-4-yl)pyrimidin-5-yl)pyrido[3,2-d]pyrimidin-4-yl)amino)-2-methylhexan-1-ol] | 5
